What was measured:
Conditions in all cases: 48 h
NOMO1 [1] = assay: cell viability relative to DMSO control; higher = less cytotoxic
In short: (§1)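 Cells were incubated for 48 h at 37°C before CellTiter-Glo One luminescence was read. The cells were NOMO1 or SEM (500 cells/well) or P12-Ichikawa (1000 cells/well) leukemia cells, adapted for at least four passages in each medium and seeded in 1536-well plates (5 μl). Dosing used library compounds in DMSO applied by pin over 11 threefold points, 47 μM to 0.79 nM. Viability is the per-plate percentage of DMSO wells, with cell-free wells as background.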

P12-Ichikawa [2] = assay: as above
In short: as §1

SEM cells = assay: as above
In short: as §1

NOMO1 [3] = assay: AUC of viability dose-response curve (% viability x log10 dose units); higher = less sensitive
In short: (§2)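 Leukemia cells adapted to each medium were seeded at 500 or 1000 cells/well in 1536-well plates and dosed with library compounds in DMSO at 11 threefold doses from 47 μM to 0.79 nM for 48 h at 37°C. CellTiter-Glo One luminescence was normalised per plate to DMSO and cell-free wells, then fitted with a four-parameter log-logistic model over log10 doses. Area under the curve was taken from this fit by the trapezoidal rule, with curves above full viability scaled and curves failing quality control removed.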

P12-Ichikawa [4] = assay: as above
In short: as §2

COc1cc2nccc(Oc3ccc(NC(=O)Nc4ccc(F)cc4F)c(F)c3)c2cc1OC
cell viability [%]
Conditions	NOMO1 [1]	P12-Ichikawa [2]	SEM cells
HPLM + 10% dialyzed FBS, 0.000781 µM	101	95.4	103
HPLM + 10% dialyzed FBS, 0.00234 µM	95.8	93.2	86
HPLM + 10% dialyzed FBS, 0.00702 µM	94.1	94.7	63.8
HPLM + 10% dialyzed FBS, 0.0211 µM	84.6	100	74.4
HPLM + 10% dialyzed FBS, 0.0632 µM	89.9	98.1	50.7
HPLM + 10% dialyzed FBS, 0.19 µM	86	89.3	32.3
HPLM + 10% dialyzed FBS, 0.569 µM	90.3	91.8	41.6
HPLM + 10% dialyzed FBS, 1.71 µM	83.6	94.1	42.2
HPLM + 10% dialyzed FBS, 5.12 µM	75	85	34.9
HPLM + 10% dialyzed FBS, 15.4 µM	78.7	76.5	36.4
HPLM + 10% dialyzed FBS, 46.1 µM	72.2	12.9	20
RPMI 5 mM glucose + 10% FBS, 0.000781 µM	83	91.1	118
RPMI 5 mM glucose + 10% FBS, 0.00234 µM	95.8	94.8	115
RPMI 5 mM glucose + 10% FBS, 0.00702 µM	79.6	88.4	87.7
RPMI 5 mM glucose + 10% FBS, 0.0211 µM	90.5	94.8	88.9
RPMI 5 mM glucose + 10% FBS, 0.0632 µM	96.2	93.5	71.9
RPMI 5 mM glucose + 10% FBS, 0.19 µM	88.1	92.2	59
RPMI 5 mM glucose + 10% FBS, 0.569 µM	87.5	83.8	55.9
RPMI 5 mM glucose + 10% FBS, 1.71 µM	90.9	86	51.6
RPMI 5 mM glucose + 10% FBS, 5.12 µM	83	73.5	56.4
RPMI 5 mM glucose + 10% FBS, 15.4 µM	80.1	80.3	53.6
RPMI 5 mM glucose + 10% FBS, 46.1 µM	75.7	13.7	13.3
RPMI 5 mM glucose + 10% dialyzed FBS, 0.000781 µM	96.6	88	72.7
RPMI 5 mM glucose + 10% dialyzed FBS, 0.00234 µM	96.1	98.3	89
RPMI 5 mM glucose + 10% dialyzed FBS, 0.00702 µM	103	87.5	51.1
RPMI 5 mM glucose + 10% dialyzed FBS, 0.0211 µM	91.9	89.9	62.2
RPMI 5 mM glucose + 10% dialyzed FBS, 0.0632 µM	94.5	82.1	41.6
RPMI 5 mM glucose + 10% dialyzed FBS, 0.19 µM	90.1	87.4	37
RPMI 5 mM glucose + 10% dialyzed FBS, 0.569 µM	81.7	84.5	34.1
RPMI 5 mM glucose + 10% dialyzed FBS, 1.71 µM	102	85.3	36.4
RPMI 5 mM glucose + 10% dialyzed FBS, 5.12 µM	80.7	75	33.4
RPMI 5 mM glucose + 10% dialyzed FBS, 15.4 µM	83.2	81.9	33.3
RPMI 5 mM glucose + 10% dialyzed FBS, 46.1 µM	54.6	22.2	12.6

AUC of viability dose-response curve
Conditions	HPLM + 10% dialyzed FBS	RPMI 5 mM glucose + 10% FBS	RPMI 5 mM glucose + 10% dialyzed FBS
NOMO1 [3]	413	414	429
P12-Ichikawa [4]	419	401	395

— the supplement of paper PMC11451515
